A word on the viability: it is a read-out of living cells in per cent, often relative to untreated cells.

The data set is described as follows: in vitro. To be noted: human, hela cells, % viability.

On to `CCc1nn(CC(=O)N2CCCCC2)c(=O)c2cc3oc(C)cc3n12` [CBK283575], for which the viability at 28.5 h, 10 µM worked out at 104%.

With `O=C(CN1CCC(c2ccccc2F)CC1)N1CCCCC1` [CBK283577], the viability at 28.5 h, 10 µM came to 97.3%.

In the case of `O=C(CN1CCC(c2ccccc2F)CC1)N1CCCC1` [CBK283578], the viability at 28.5 h, 10 µM stood at 98.2%.

Take `Fc1ccc(CN2CCC(n3cnc4cccnc43)CC2)cc1` [CBK283580]: the viability at 28.5 h, 10 µM was 98.2%.

`c1ccc(CCN2CCC(n3cnc4cccnc43)CC2)cc1` [CBK283581]: the viability at 28.5 h, 10 µM amounted to 88.5%.

For `CCc1nn(CC(=O)N(CC)CC)c(=O)c2cc3oc(C)cc3n12` [CBK283583], the viability at 28.5 h, 10 µM amounted to 99.5%.

`Cc1nc2c(c(=O)[nH]1)CN(C(=O)Cc1c(F)cccc1Cl)CC2` [CBK283589]: the viability at 28.5 h, 10 µM was found to be 92.1%.

As to `Cc1cc2c(cc3c(=O)n(CC(=O)N4CCCCCC4)nc(C)n32)o1` [CBK283591], the viability at 28.5 h, 10 µM worked out at 103%.

As to `Cc1ccnn1CCC(=O)NC1(c2ccc(F)cc2)CCCC1` [CBK283600], the viability at 28.5 h, 10 µM was determined as 115%.

As for `Cc1ccc(C2=CCN(CC(=O)Nc3ccc(N(C)C)cc3)CC2)o1` [CBK283604], the viability at 28.5 h, 10 µM was determined as 95.5%.

As for `Cc1ccc(C2=CCN(CC(=O)NC3CCCC3)CC2)o1` [CBK283605], the viability at 28.5 h, 10 µM was 92%.

Take `Cc1ccc(C2=CCN(CC(=O)Nc3nc(C)c(C)s3)CC2)o1` [CBK283607]: the viability at 28.5 h, 10 µM is 99.1%.

Turning to `CCN(CC)C(=O)Cn1nc(C)n2c(cc3oc(C)cc32)c1=O` [CBK283609], the viability at 28.5 h, 10 µM is 93.7%.

Consider `COc1cccc(C2(NC(=O)c3cnsc3)CCCC2)c1` [CBK283611], for which the viability at 28.5 h, 10 µM was determined as 94.9%.

As to `CC(=O)NC1(c2ccc(F)cc2)CCN(CC(=O)NCC2CC2)CC1` [CBK283614], the viability at 28.5 h, 10 µM amounted to 93.9%.

Consider `Cc1c(C(=O)O[C@H]2C[C@@H](c3ccc(F)cc3)N(C)C2=O)cnn1C` [CBK283616], for which the viability at 28.5 h, 10 µM amounted to 103%.

For `CC(=O)NC1(c2ccccc2F)CCN(CC(=O)N(C)C)CC1` [CBK283618], the viability at 28.5 h, 10 µM was 103%.

`CCN(CC)C(=O)Cn1nc(C)n2c(cc3occc32)c1=O` [CBK283620]: the viability at 28.5 h, 10 µM came to 86.7%.

With `O=C(Cn1ncc2cccn2c1=O)c1ccc(F)cc1` [CBK283627], the viability at 28.5 h, 10 µM was 82.7%.

With `CC(C)(C)NC(=O)CN1CCC(c2ccc(F)cc2)CC1` [CBK283629], the viability at 28.5 h, 10 µM was found to be 90.1%.

In the case of `Cc1cc2c(cc3c(=O)n(CC(=O)N4CCCCC4)nc(C)n32)o1` [CBK283630], the viability at 28.5 h, 10 µM was 83.4%.

Consider `Cc1cc2c(cc3c(=O)n(CC(=O)N4CCCC4)nc(C)n32)o1` [CBK283631], for which the viability at 28.5 h, 10 µM came out at 93.1%.

In the case of `Cc1ccc(C2=CCN(CC(=O)N(C)C3CCCCC3)CC2)o1` [CBK283633], the viability at 28.5 h, 10 µM was determined as 91.6%.

`O=C(Cc1ccccc1F)N1CCC(n2cnc3cccnc32)CC1` [CBK283635]: the viability at 28.5 h, 10 µM came out at 87.7%.

Turning to `O=C(c1cc(F)cc(F)c1)N1CCC(n2cnc3cccnc32)CC1` [CBK283636], the viability at 28.5 h, 10 µM stood at 88.6%.

Consider `CCc1nc2cccnc2n1CCNC(=O)c1cccs1` [CBK283638], for which the viability at 28.5 h, 10 µM came to 94.3%.

Take `O=C(CN1CCC(c2ccc(F)cc2)CC1)NCc1ccco1` [CBK283641]: the viability at 28.5 h, 10 µM was 94.9%.

In the case of `COc1ccccc1C1(NC(=O)c2cnsc2)CCCC1` [CBK283643], the viability at 28.5 h, 10 µM turned out to be 84.5%.

`O=C(CCn1c2ccccc2c2ccccc21)N1CCn2cnnc2C1` [CBK283645]: the viability at 28.5 h, 10 µM came out at 90.4%.

With `Cc1nc2c(c(=O)[nH]1)CN(C(=O)c1cc(C3CC3)oc1C)CC2` [CBK283650], the viability at 28.5 h, 10 µM stood at 103%.

Consider `Cc1cc(C(F)(F)F)c2c(NC/C=C/c3ccco3)n[nH]c2n1` [CBK283651], for which the viability at 28.5 h, 10 µM amounted to 92.7%.

Turning to `Cc1nn(CC(=O)N(C)C2CCCCC2)c(=O)c2cc3occc3n12` [CBK283653], the viability at 28.5 h, 10 µM came to 92.4%.

For the compound `CCc1nn(CC(=O)N(CC)CC)c(=O)c2cc3occc3n12` [CBK283656], the viability at 28.5 h, 10 µM amounted to 91%.
